Patent US10987349B2, “Antitumor agent and bromodomain inhibitor” (FUJIFILM Corporation, priority 2016, dated 2021)

What was measured:
BRD3 BD1 = molecular target: T1, BRD3 BD1 (Homo sapiens, UniProt Q15059); assay: Binding assay, BRD3 BD1 to acetylated histone H4 Peptide-Biotin (EPIgeneous Binding Domain Kit A)
T1 construct: BRD2 BD1, BRD3 BD1 and BRD4 BD1 (Cisbio); purchased Cisbio
Procedure, shortened: (§1)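 HTRF competition: bromodomain protein (added at 20 nmol/L) and biotinylated tetra-acetyl H4(1-25) peptide (added at 25 nmol/L) were incubated with compound, streptavidin-d2 and anti-GST Eu cryptate for 20 h at room temperature. Inhibition came from the 665/620 nm ratio relative to DMSO; IC50 by four-parameter fit; some compounds were tested only at 300 nmol/L final.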

[1] = test system: human acute myeloid leukemia cell line MOLM-13; assay: Cell growth test (Cell Titer Glo) MOLM-13; assay type: cell-based; details: 3 to 5 days
From the text: (§2) The human undifferentiated thymoma cell line Ty-82 (JCRB), the human acute myeloid leukemia cell lines MV4-11 (ATCC), MOLM-13 (ATCC) and RS4-11 (ATCC), the human lymphoma cell line Raji (JCRB), the human cervical epidermoid carcinoma cell line Hela (JCRB), the human lung adenocarcinoma cell line A549 (ATCC), the human colon cancer cell lines DLD1 (DS Pharma) and HCT116 (DS Pharma), and the human pancreatic cancer cell line MIAPACA-2 (ATCC) were used to carry out a cell growth test.
(§3) Ty-82, MV4-11, MOLM-13, RS4-11, Raji and DLD1 were each seeded in a well plate, in which Roswell Park Memorial Institute (RPMI)-1640 medium supplemented with penicillin/streptomycin and fetal bovine serum (FBS) with a final concentration of 10% was placed. Hela was seeded in Dulbecco's Modified Eagle's medium (DMEM) supplemented with penicillin/streptomycin and FBS with a final concentration of 10%. A549 and MIAPACA-2 were each seeded in a well plate, in which Minimum Essential Medium (MEM) supplemented with penicillin/streptomycin and FBS with a final concentration of 10% was placed. HCT116 was seeded in a well plate, in which McCoy's 5A medium supplemented with penicillin/streptomycin and FBS with a final concentration of 10% was placed.
(§4) Thereafter, a medium containing a test compound serially diluted with DMSO, or DMSO, was added to each well of the plate, in which the cells had been seeded, and the obtained mixture was then cultured under conditions of 37° C. and 5% CO2 for 3 to 5 days. Cell Titer Glo reaction solution (Promega) was added to the culture, and the amount of luminescence was then measured using Envision plate reader (PerkinElmer). Since the amount of luminescence is in proportion to the concentration of adenosine triphosphate (ATP) in cells, the amount of luminescence was used as an indicator of the number of living cells. The growth inhibition percentage of the test compound in each concentration was calculated according to the following equation. Growth inhibition percentage (%)=(amount of luminescence in test compound−added well)/(amount of luminescence in DMSO−added well)×100
(§5) The growth inhibition percentage of the test compound in each concentration was plotted by performing a non-linear regression analysis [(log (inhibitor) vs. response—Variable slope (four parameters)], using Graphpad prism 5, and a 50% growth inhibitory concentration [GI50 (nmol/L)] was then calculated.

BRD4 BD2 = molecular target: T2, BRD4 BD2 (Homo sapiens, UniProt O60885); assay: Binding assay, BRD4 BD2 to acetylated histone H4 Peptide-Biotin (EPIgeneous Binding Domain Kit B)
T2 construct: BRD2 BD2, BRD3 BD2 and BRD4 BD2 (Cisbio); purchased Cisbio
Procedure, shortened: (§6)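 HTRF binding of GST-tagged BD2 (20 nmol/L working stock) to biotinylated acetyl-histone H4 peptide (250 nmol/L working stock), using streptavidin-XL665 and anti-GST Eu cryptate. Incubated 20 h at room temperature; 665/620 nm ratio versus DMSO gives % inhibition; IC50 by four-parameter fit, or % inhibition at 300 nmol/L.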

BRD4 BD1 = molecular target: T3, BRD4 BD1 (Homo sapiens, UniProt O60885); assay: Binding assay, BRD4 BD1 to acetylated histone H4 Peptide-Biotin (EPIgeneous Binding Domain Kit A)
T3 construct: BRD2 BD1, BRD3 BD1 and BRD4 BD1 (Cisbio); purchased Cisbio
Procedure, shortened: as §1

[2] = test system: MV4-11 subcutaneously transplanted tumor; assay: Medicinal effect test, MV4-11-subcutaneously-transplanted cancer-bearing mouse models, oral administration; assay type: in vivo; details: orally, once per day, 14 days, BALB/c nu/nu mice
Procedure: The human acute myeloid leukemia cell line MV4-11 (ATCC) was suspended in a mixture of RPMI-1640 medium and Matrigel (Corning), and the obtained mixture was then subcutaneously transplanted into 6-week-old female BALB/c nu/nu mice (CLEA Japan, Inc.). After confirming that the average tumor volume exceeded 200 mm^3, a test compound was dissolved in a solvent (a 0.5% methyl cellulose aqueous solution or water containing 1 equivalent of hydrochloric acid), and the obtained solution was then orally administered to the mice at a daily dose of 10 to 30 mg/kg, once per day, for 14 days. As a negative control, a solvent administration group involving administration of a 0.5% methyl cellulose aqueous solution was established. The tumor diameter was measured on a daily basis, and the tumor volume was calculated. The tumor volume was calculated by measuring the major axis and minor axis of the tumor and then applying the following equation. Tumor volume (mm^3)=[major axis (mm)×minor axis (mm)×minor axis (mm)]/2
T/C (%) was calculated from the average tumor volume of each group according to the following equation, and medicinal effects were then evaluated. T/C(%)=[1−(average tumor volume of drug administration group)/(average tumor volume of solvent administration group)]×100%

BRD2 BD2 = molecular target: T4, BRD2 BD2 (Homo sapiens, UniProt P25440); assay: Binding assay, BRD2 BD2 to acetylated histone H4 Peptide-Biotin (EPIgeneous Binding Domain Kit B)
T4 construct: BRD2 BD2, BRD3 BD2 and BRD4 BD2 (Cisbio); purchased Cisbio
Procedure, shortened: as §6

BRD3 BD2 = molecular target: T5, BRD3 BD2 (Homo sapiens, UniProt Q15059); assay: Binding assay, BRD3 BD2 to acetylated histone H4 Peptide-Biotin (EPIgeneous Binding Domain Kit B)
T5 construct: BRD2 BD2, BRD3 BD2 and BRD4 BD2 (Cisbio); purchased Cisbio
Procedure, shortened: as §6

BRD2 BD1 = molecular target: T6, BRD2 BD1 (Homo sapiens, UniProt P25440); assay: Binding assay, BRD2 BD1 to acetylated histone H4 Peptide-Biotin (EPIgeneous Binding Domain Kit A)
T6 construct: BRD2 BD1, BRD3 BD1 and BRD4 BD1 (Cisbio); purchased Cisbio
Procedure, shortened: as §1

[3] = test system: human acute myeloid leukemia cell line MV4-11; assay: Cell growth test (Cell Titer Glo) MV4-11; assay type: cell-based; details: 3 to 5 days
From the text: as §2, §3, §4, §5

[4] = test system: human undifferentiated thymoma cell line Ty-82; assay: Cell growth test (Cell Titer Glo) Ty-82; assay type: cell-based; details: TY82, 3 to 5 days
From the text: as §2, §3, §4, §5

T5 sequence (Q15059 306-415 limits assumed): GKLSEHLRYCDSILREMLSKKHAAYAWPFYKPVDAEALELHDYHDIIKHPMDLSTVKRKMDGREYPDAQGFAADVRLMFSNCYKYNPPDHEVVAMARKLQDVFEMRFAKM
T6 sequence (P25440 74-180 limits assumed): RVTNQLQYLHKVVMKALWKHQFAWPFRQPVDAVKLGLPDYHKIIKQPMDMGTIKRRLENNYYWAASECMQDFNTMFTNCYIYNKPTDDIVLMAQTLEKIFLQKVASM
T4 sequence (P25440 344-453 limits assumed): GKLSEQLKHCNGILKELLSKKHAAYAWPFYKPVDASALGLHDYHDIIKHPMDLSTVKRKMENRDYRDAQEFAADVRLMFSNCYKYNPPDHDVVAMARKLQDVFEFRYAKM
T1 sequence (Q15059 34-140 limits assumed): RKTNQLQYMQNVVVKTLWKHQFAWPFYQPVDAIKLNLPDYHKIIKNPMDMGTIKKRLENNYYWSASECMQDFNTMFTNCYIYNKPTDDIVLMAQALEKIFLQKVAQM

CCn1c(=O)cc(N2CCOCC2)c2cc(-n3c(-c4ccc(Cl)cc4)cn(C)c3=O)ccc21 [Example 246, 6-(5-(4-chlorophenyl)-3-methyl-2-oxo-2,3-dihydro-1H-imidazol-1-yl)-1-ethyl-4-(morpholin-4-yl)quinolin-2(1H)-one]
IC50 (BRD3 BD1): 91 nM | inhibition at 0.3 µM (BRD3 BD1; test compound at 300 nmol/L, read-out: Binding inhibition percentage BRD3 BD1): 55% | GI50 [1]: 43 nM | IC50 (BRD4 BD2): 7 nM | inhibition at 0.3 µM (BRD4 BD2; test compound at 300 nmol/L, read-out: Binding inhibition percentage BRD4 BD2): 84% | IC50 (BRD4 BD1): 40 nM | inhibition at 0.3 µM (BRD4 BD1; test compound at 300 nmol/L, read-out: Binding inhibition percentage BRD4 BD1): 67% | T/C (%) ([2]; 10 mg/kg): 13% | T/C (%) ([2]; 30 mg/kg): 33% | IC50 (BRD2 BD2): 18 nM | inhibition at 0.3 µM (BRD2 BD2; test compound at 300 nmol/L, read-out: Binding inhibition percentage BRD2 BD2): 82% | IC50 (BRD3 BD2): 12 nM | inhibition at 0.3 µM (BRD3 BD2; test compound at 300 nmol/L, read-out: Binding inhibition percentage BRD3 BD2): 90% | IC50 (BRD2 BD1): 144 nM | inhibition at 0.3 µM (BRD2 BD1; test compound at 300 nmol/L, read-out: Binding inhibition percentage BRD2 BD1): 34% | GI50 [3]: 16 nM | GI50 [4]: 17 nM
